Reference: US4226879A, “Antibiotic composition” (Kyowa Hakko Kogyo Kabushiki Kaisha, priority 1976, dated 1980)
In brackets after ≈: the same amount, converted by molar mass. Entries after “also recorded” stand apart in the source; their conditions may differ.

Columns and labels:
S. aureus FDA 209P JC-1 = test: MIC, agar dilution method; format: cell-based; details: Staphylococcus aureus, FDA209P; pH 7.0, 37° C., 18 hours
[1] = tested on: S. aureus FS-1277 (penicillin-resistant); test: MIC, agar dilution method; format: cell-based; details: Staphylococcus aureus; pH 7.0, 37° C., 18 hours
[2] = tested on: S. aureus KB-64 (tetracycline & erythromycin-resistant); test: MIC, agar dilution method; format: cell-based; details: Staphylococcus aureus; pH 7.0, 37° C., 18 hours
B. agri = test: MIC, agar dilution method; format: cell-based; details: pH 7.0, 37° C., 18 hours
Procedure: (§1) Table 1 indicates the antibacterial and antifungal activity of AM-1042 as minimum inhibitory concentration (mcg/ml) determined by the agar dilution method.
(§2) *Peptone 0.5%; meat extract 0.5%; agar 1.2% (pH 7.0), 37° C., 18

E. coli B = test: MIC, agar dilution method; format: cell-based; details: Escherichia coli; pH 7.0, 37° C., 18 hours
Procedure: as §1, §2

S. albus = test: MIC, agar dilution method; format: cell-based; details: pH 7.0, 37° C., 18 hours
Procedure: as §1, §2

Shigella sonnei E-33 = test: MIC, agar dilution method; format: cell-based; details: E33, pH 7.0, 37° C., 18 hours
Procedure: as §1, §2

Micrococcus flavus 16 = test: MIC, agar dilution method; format: cell-based; details: pH 7.0, 37° C., 18 hours
Sarcina lutea PCI 1001 = test: MIC, agar dilution method; format: cell-based
[3] = tested on: Bacillus subtilis PCI 219; test: MIC, agar dilution method; format: cell-based; details: PCI219, pH 7.0, 37° C., 18 hours
B. subtilis ATCC 6633 = test: MIC, agar dilution method; format: cell-based; details: Bacillus subtilis, ATCC6633; pH 7.0, 37° C., 18 hours
B. subtilis NRRL B-558 = test: MIC, agar dilution method; format: cell-based; details: Bacillus subtilis, NRRLB558; pH 7.0, 37° C., 18 hours
B. cereus T = test: MIC, agar dilution method; format: cell-based
B. megaterium APF = test: MIC, agar dilution method; format: cell-based; details: Priestia megaterium; pH 7.0, 37° C., 18 hours
B. anthracis = test: microbe, parasite or virus in culture; format: cell-based; details: Bacillus anthracis, 18 h, pH 7
[4] = tested on: Corynebacterium paurometabolum; test: MIC, agar dilution method; format: cell-based; details: Tsukamurella paurometabola; pH 7.0, 37° C., 18 hours
[5] = tested on: Aerobacter aerogenes IAM 1183; test: MIC, agar dilution method; format: cell-based; details: Klebsiella aerogenes, IAM1183; pH 7.0, 37° C., 18 hours
[6] = tested on: Mycobacterium smegmatis ATCC 607; test: MIC, agar dilution method; format: cell-based; details: Mycolicibacterium smegmatis, ATCC607; pH 7.0, 37° C., 18 hours
[7] = tested on: Proteus vulgaris IFO 3163; test: MIC, agar dilution method; format: cell-based; details: IFO3163, pH 7.0, 37° C., 18 hours
Candida albicans = test: MIC, agar dilution method; format: cell-based; details: pH 6.8, 27° C. 72 hours
Sacchromyces cerevisiae = test: MIC, agar dilution method; format: cell-based; details: pH 6.8, 27° C. 72 hours
[8] = tested on: Trichophyton mentagrophytes; test: MIC, agar dilution method; format: cell-based; details: pH 6.8, 27° C. 72 hours
Piricularia oryzae = test: microbe, parasite or virus in culture; format: cell-based; details: 72 h, pH 6.8
Alternaria kikuchiana = test: MIC, agar dilution method; format: cell-based; details: pH 6.8, 27° C. 72 hours
Fusarium oxysporum = test: MIC, agar dilution method; format: cell-based; details: pH 6.8, 27° C. 72 hours
Botrytis cinerea = test: MIC, agar dilution method; format: cell-based; details: pH 6.8, 27° C. 72 hours
[9] = solubility in various solvents; format: physicochemical
[10] = tested on: Eimeria tenella K-2, E. acervulina and E. maxima; test: anticoccidial test in chicks, mixed infection (Example 5); format: in vivo, E. maxima (in chicks); design: key to Caecal lession: -: not infected; +: light; ++: middle; +++: heavy; details: for RIW (ratio of the increase of the body weight): vs healthy chicks
Procedure: The results are shown in Table 5 where the ratio of the increase of the body weight (RIW) is calculated as follows: (RIW (%)=[weight at the completion of the test (in average)]/[weight of healthy chicks (control) in average]×100%.

Eimeria tenella = test: anticoccidial activity; format: in vivo
Eimeria necatrix = test: anticoccidial activity; format: in vivo
Eimeria acervulina = test: anticoccidial activity; format: in vivo
Eimeria maxima = test: anticoccidial activity; format: in vivo
poultry = test: growth-promoting effect in poultry; format: in vivo; details: 0.001 to 0.02% by weight of the diet
Source text: Thus, AM-1042 is potentially of interest owing to its growth-promoting effect. For this purpose, the mode of administration is analogous to those described above.

mice = details: mouse, in vivo, 450 mg/kg

O=C(/C=C/C=C/C=C/C1CCCCC1)NC1=CC(O)(/C=C/C=C/C=C/C(=O)NC2=C(O)CCC2=O)C2OC2C1=O (stereo not shown) [AM-1042]
MIC (S. aureus FDA 209P JC-1): 0.7 µg/mL (≈ 1.28 µM)
MIC [1]: 6.2 µg/mL (≈ 11.3 µM)
MIC [2]: 6.2 µg/mL (≈ 11.3 µM)
MIC (B. agri): 12.5 µg/mL (≈ 22.9 µM)
MIC (E. coli B): > 100 µg/mL
MIC (S. albus): 12.5 µg/mL (≈ 22.9 µM)
MIC (Shigella sonnei E-33): > 100 µg/mL
MIC (Micrococcus flavus 16): 1.5 µg/mL (≈ 2.74 µM)
activity upon Sarcina lutea (Sarcina lutea PCI 1001): active
MIC (Sarcina lutea PCI 1001; Micrococcus luteus, PCI1001, pH 7.0, 37° C., 18 hours): 6.2 µg/mL (≈ 11.3 µM)
MIC [3]: 3.1 µg/mL (≈ 5.67 µM)
MIC (B. subtilis ATCC 6633): 6.2 µg/mL (≈ 11.3 µM)
MIC (B. subtilis NRRL B-558): > 100 µg/mL
activity upon Bacillus cereus (B. cereus T): active
MIC (B. cereus T; Bacillus cereus, pH 7.0, 37° C., 18 hours): 3.1 µg/mL (≈ 5.67 µM)
MIC (B. megaterium APF): 6.2 µg/mL (≈ 11.3 µM)
MIC (B. anthracis): 12.5 µg/mL (≈ 22.9 µM)
MIC [4]: 1.56 µg/mL (≈ 2.85 µM)
MIC [5]: 100 µg/mL (≈ 183 µM)
MIC [6]: > 100 µg/mL
MIC [7]: > 100 µg/mL
MIC (Candida albicans): > 100 µg/mL
MIC (Sacchromyces cerevisiae): > 100 µg/mL
MIC [8]: 25 µg/mL (≈ 45.7 µM)
MIC (Piricularia oryzae): 100 µg/mL (≈ 183 µM)
MIC (Alternaria kikuchiana): > 100 µg/mL
MIC (Fusarium oxysporum): > 100 µg/mL
MIC (Botrytis cinerea): > 100 µg/mL
solubility ([9]; in acetone): Soluble
solubility ([9]; in chloroform): Soluble
solubility ([9]; in dimethylformamide): Easily soluble
solubility ([9]; in dimethylsulfoxide): Easily soluble
solubility ([9]; in ethanol): Soluble
solubility ([9]; in ethyl acetate): Soluble
solubility ([9]; in fat): soluble in fat
solubility ([9]; in methanol): Soluble
solubility ([9]; in n-hexane): Insoluble
solubility ([9]; in petroleum ether): Insoluble
solubility ([9]; in water): Insoluble
Caecal lession ([10]; 0.005 % AM-1042 (Test-5)): +
Survival ratio ([10]; 0.005 % AM-1042 (Test-5)): 90%
RIW (ratio of the increase of the body weight) ([10]; 0.005 % AM-1042 (Test-5)): 98.7%
Caecal lession ([10]; 0.0075 % AM-1042 (Test-4)): -
Survival ratio ([10]; 0.0075 % AM-1042 (Test-4)): 100%
RIW (ratio of the increase of the body weight) ([10]; 0.0075 % AM-1042 (Test-4)): 99.9%
Caecal lession ([10]; 0.01 % AM-1042 (Test-3)): -
Survival ratio ([10]; 0.01 % AM-1042 (Test-3)): 100%
RIW (ratio of the increase of the body weight) ([10]; 0.01 % AM-1042 (Test-3)): 100.8%
Caecal lession ([10]; 0.015 % AM-1042 (Test-2)): -
Survival ratio ([10]; 0.015 % AM-1042 (Test-2)): 100%
RIW (ratio of the increase of the body weight) ([10]; 0.015 % AM-1042 (Test-2)): 100.5%
Caecal lession ([10]; 0.02 % AM-1042 (Test-1)): -
Survival ratio ([10]; 0.02 % AM-1042 (Test-1)): 100%
RIW (ratio of the increase of the body weight) ([10]; 0.02 % AM-1042 (Test-1)): 100.2%
activity upon coccidiosis (Eimeria tenella; Eimeria tenella, also when resistant to amprolium hydrochloride, clopidol, robenidine hydrochloride): significantly active
reducing mortality of chicks (Eimeria tenella; chicks infected with Eimeria tenella): effective in reducing mortality of chicks
activity upon coccidiosis (Eimeria necatrix): significantly active
activity upon coccidiosis (Eimeria acervulina): significantly active
activity upon coccidiosis (Eimeria maxima): significantly active
growth-promoting effect (poultry): capable of promoting the growth of poultry; also recorded: exhibits a growth-promoting effect
side effect on mice (mice): no side effect
